Legend:
[1] = molecular target: T1, H1-histaminergic receptors (Rattus norvegicus, UniProt P31390); assay: [3H] pyrilamine binding in rat cortex membranes; details: displacement of 3H pyrilamine (2 nM final), rat cortex homogenate, 30 minute incubation at room temperature; Ki from IC50 with the Cheng-Prusoff equation
T1 construct: The brains of young male rats are removed; The cortici are dissected; from tissue; host or cells: rat brain cortex membrane homogenate
Procedure: Antihistaminic potential is measured by affinity of a test compound for [^3H] pyrilamine binding sites associated with the antagonist component of H1-histaminergic receptors in animal brain membranes. Affinity for this receptor is indicative of the potential of a test compound to interact with central and peripheral H1-histaminergic receptors.
The following method is used to determine the affinity of test compounds for [^3H] pyrilamine binding sites in rat cortex.
The brains of young male rats are removed. The cortici are dissected and stored at -20°C or immediately used. The tissue is homogenized in 10 ml of ice-cold […] K/NaPO4 buffer (pH 7.4) using a Polytron (setting 6 for 15 seconds). […]
The brains of young male rats are removed. […] The filters are either transferred to scintillation vials and 10 ml Quicksafe A is added for liquid scintillation spectrometry or a thin layer of solid scintillant is melted onto the filters and the filters then counted using a betaplate beta counter. Specific binding of ^3H pyrilamine is measured as the excess over blanks taken in the presence of 2.10-6 M promethazine. Protein content of the membranes is determined by the method of Lowry et al., J. Biol. Chem. 193, 265-275 (1951). Displacement curves are analyzed using the GraphPad (GraphPad Software, Inc.) or similar program to obtain Hill slopes and IC50 values. […]

[2] = extent of first pass metabolism to two primary metabolites; cited from earlier work

T1 sequence (P31390 whole entry): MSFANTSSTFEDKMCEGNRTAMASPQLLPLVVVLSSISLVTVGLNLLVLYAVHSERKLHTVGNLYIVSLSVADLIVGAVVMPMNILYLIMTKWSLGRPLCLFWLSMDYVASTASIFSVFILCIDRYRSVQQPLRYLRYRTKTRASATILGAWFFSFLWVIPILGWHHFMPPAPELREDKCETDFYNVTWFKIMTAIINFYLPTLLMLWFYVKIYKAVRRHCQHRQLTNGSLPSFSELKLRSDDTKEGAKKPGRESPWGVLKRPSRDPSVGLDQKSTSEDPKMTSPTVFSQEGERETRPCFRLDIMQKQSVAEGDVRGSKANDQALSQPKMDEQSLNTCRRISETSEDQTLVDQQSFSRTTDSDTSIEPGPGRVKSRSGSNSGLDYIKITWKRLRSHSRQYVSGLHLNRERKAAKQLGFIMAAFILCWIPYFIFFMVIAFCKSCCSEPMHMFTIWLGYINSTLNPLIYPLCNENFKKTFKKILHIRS

Row | SMILES | Ki [1] | first pass metabolism [2]
1 | CC(CO)(C(=O)O)c1ccc(C(O)CCCN2CCC(C(O)(c3ccccc3)c3ccccc3)CC2)cc1 (stereo not drawn) [4-[1-hydroxy-4-[4-(hydroxydiphenylmethyl)-1-piperidinyl]butyl]-α-(hydroxymethyl)-α-methyl-benzeneacetic acid] | 360 nM | 
2 | CC(C)(C)c1ccc(C(O)CCCN2CCC(C(O)(c3ccccc3)c3ccccc3)CC2)cc1 (stereo not drawn) [Terfenadine, α-[4-(1,1-dimethylethyl)phenyl]-4-(hydroxydiphenylmethyl)-1-piperidinebutanol] |  | 99%

Source: patent publication EP1091938B1, “ANTIHISTAMINIC PIPERIDINE DERIVATIVES AND INTERMEDIATES FOR THE PREPARATION THEREOF” (Aventisub II Inc., priority 1998, dated 2000)
